Inconclusive results are not listed. Activity calls are given as the source filed them.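 How the source made its calls: active means EC50 no more than tenfold above the top concentration tested, with valid fit and all samples agreeing; inconclusive means flat fit at 30 to 70% inhibition, poor fit, or split samples; inactive means EC50 beyond tenfold the top concentration tested.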
Tested on: BJeLR fibroblast viability, Alamar Blue fluorescence, 48 h
Assay: BJeLR fibroblast growth inhibition, viability readout – cell-based, alamar blue fluorescence, 48 h, cherrypicked samples, dose response (AID 2610);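 further: BJ fibroblasts with hTERT plus SV40 large and small T and HRAS V12; EC50 for loss of viable cells so potency reflects cytotoxic compounds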

Compound | EC50
C#CCOc1ccc(C2C3=C(COC3=O)Nc3cc4c(cc32)OCO4)cc1OC (stereo not given) | < 104 nM
COc1ccc(S(=O)(=O)N2c3cc(Cl)ccc3Oc3nc4ccccc4nc32)cc1 | 193 nM
COC(=O)c1cccc(Nc2c3c(nc4ccccc24)CCC3)c1 | 2600 nM
COc1ccccc1-c1nnc2sc(-c3ccc(N(C)C)cc3)nn12 | < 104 nM
COc1ccc(OC)c2sc(N(CCCN(C)C)C(=O)c3ccc(S(=O)(=O)N4CCc5ccccc5C4)cc3)nc12 | 108 nM
COc1cccc2c1C(=O)c1c(O)c3c(c(O)c1C2=O)C[C@@](O)(C(=O)CO)C[C@@H]3O[C@H]1C[C@H](N)[C@@H](O)[C@H](C)O1 | < 104 nM
O=[N+]([O-])c1ccc(N=Nc2ncc[nH]2)cc1 | 2370 nM
Cc1ccc(/C=N/NC(=O)c2n[nH]c3c2CCCC3)cc1 | < 104 nM
COCCCN=C1NN=C(c2cc(C)n(Cc3ccco3)c2C)CS1 | < 104 nM
Cc1cccc(C)c1NS(=O)(=O)c1ccc(-c2cnc(C3CC3)o2)cc1 | < 104 nM
CCC(C)C(=O)OCC1(c2ccc(C)cc2OC(=O)C(C)C)CO1 (stereo not given) | > 13300 nM (inactive)
CC1=CC(C)(C)N(S(=O)(=O)c2ccc(C)cc2)c2cc(C)ccc21 | 386 nM
CCCN1C=CC(=C2C(=O)c3ccccc3C2=O)C=C1 | > 13300 nM (inactive)
Cc1occc1C(=O)N/N=C/c1ccc2c(c1)OCO2 | > 13300 nM (inactive)
COc1ccc(C(C(=O)NC2CCCCC2)N(C(=O)CCl)c2cccc(Cl)c2)cc1 (stereo not given) | < 73.2 nM
Cc1ccccc1OCC(O)CNC1CCC(NCC(O)COc2ccccc2C)CC1 (stereo not given) | 582 nM
CC(C)c1onc(C(=O)N2CCN(C(c3ccccc3)c3ccccc3)CC2)c1[N+](=O)[O-] | 522 nM
CCOCCOC(=O)c1[nH]c2c(c1C)C(=O)CC(c1ccccc1)C2 (stereo not given) | 262 nM
CCOc1ccccc1C(=O)N1CCN(c2cccc(Cl)c2)CC1 | < 104 nM
CN(C)CCCNc1c2ccccc2nc2ccccc12 | 506 nM
c1ccc(-c2noc(-c3ccc4c(c3)OCO4)n2)nc1 | > 13300 nM (inactive)
c1cnc2c(c1)ccc1cccnc12 | 5560 nM
O=C(COc1ccc([N+](=O)[O-])cc1)Nc1ccc(C(=O)NCc2cccnc2)cc1 | > 13300 nM (inactive)
O=[N+]([O-])c1ccccc1N/N=C\c1ccccc1Cl | > 13300 nM (inactive)
C=C1C(=O)O[C@@H]2C[C@@H](C)[C@@H]3C=CC(=O)[C@@]3(C)[C@@H](OC(=O)CC(=O)O[C@H]3[C@@H]4C(=C)C(=O)O[C@@H]4C[C@@H](C)[C@@H]4C=CC(=O)[C@]43C)[C@H]12 | < 41.7 nM
Cc1sc2cc3c(c(C(=O)c4ccccc4)[n+]2c1C)-c1cccc2cccc-3c12 | 10500 nM
COc1cc2c(c(OC)c1OC)-c1ccc(N(C)CC(OC)OC)c(=O)cc1[C@@H](NC(C)=O)CC2 | 180 nM

Compound | EC50
Cc1cccc(NC2=NC(C)(C)N=C(N)N2)c1 | > 13300 nM (inactive)
O=C(COc1ccc(Cl)cc1)Nc1ccc(C(=O)NCc2cccnc2)cc1 | 4420 nM
O=C(Cc1ccc(Cl)cc1)c1c[nH]c(C(=O)NCc2cccnc2)c1 | > 13300 nM (inactive)
COc1ccc2[nH]c3c(NCCC4=CCCCC4)ncnc3c2c1 | > 13300 nM (inactive)
Oc1ccc(/C=N/Nc2nccnc2Cl)c(O)c1 | 6750 nM
Cc1ccc(N(C(=O)CCl)C(C(=O)NC2CCCCC2)c2cccnc2)cc1C (stereo not given) | < 89.2 nM
COc1ccccc1/C=C1\SC(=O)N(CCC(=O)NCCCn2ccnc2)C1=O | > 13300 nM (inactive)
COc1ccc(N=C2S/C(=C\c3ccc(Cl)c([N+](=O)[O-])c3)C(=O)N2CCN(C)C)cc1 | 1370 nM
COc1ccc(NC(=O)C(=O)NCC2CCCN2S(=O)(=O)c2ccc(C)cc2)cc1 (stereo not given) | < 104 nM
C(=N\Nc1nc2ccccc2[nH]1)/c1ccc2ncccc2c1 | > 13300 nM (inactive)
CCCCCCCCCCn1c2c(c(=N)c3c1CCC3)CCC2 | 820 nM
O=C(c1ccc2c3n(nc2c1)-c1ccccc1CO3)N1CCOCC1 | > 13300 nM (inactive)
CC1(C)N=C(N)N=C(N)N1c1ccccc1 | > 13300 nM (inactive)
CCOc1ccc(C(=O)c2cc([N+](=O)[O-])ccc2N2CCOCC2)cc1 | < 104 nM
COc1ccccc1N1CCN(C(=O)c2cc(=O)c3cc(C)cc(C)c3o2)CC1 | < 104 nM
COc1ccc(NC(=O)CN(C)S(=O)(=O)c2ccc3[nH]c(=O)oc3c2)cc1 | > 13300 nM (inactive)
Cc1cccc(N2CCN(C(=S)Nc3ccc4nc(N5CCN(C)CC5)cc(C)c4c3)CC2)c1C | 864 nM
Nc1nc(CCl)nc(Nc2ccc3ccccc3c2)n1 | 192 nM
CCCCCN=C(N)N/N=C/c1c[nH]c2ccc(OC)cc12 | 2980 nM
CCOC(=O)c1[nH]c(C)c(C(=O)N2CCc3ccccc32)c1C | < 104 nM
O=S(=O)(c1ccc(NC(=S)NCc2cccnc2)cc1)N1CCCCC1 | < 133 nM
O=C(Cc1ccc([N+](=O)[O-])cc1)N/N=C/c1ccc([N+](=O)[O-])o1 | 3540 nM
CCSc1cc(C2C(C#N)=C(N)Oc3n[nH]c(C)c32)c(C)o1 (stereo not given) | 11500 nM
COc1cccc(CSc2nc3ccccc3cc2C=O)c1 | 111 nM
CC(C)(C)c1nnc(N/N=C/c2cc(Br)ccc2O)n(N)c1=O | 1400 nM
O=Cc1cc2ccccc2nc1SCc1ccc(Cl)c(Cl)c1 | < 104 nM
COC(=O)C1CC23C=CCN4CCC5(c6ccccc6NC15C2C)C43 (stereo not given) | < 104 nM

Compound | EC50
O=C1C=C(c2cccs2)C[C@H](c2ccccc2)[C@H]1n1nnc([N+](=O)[O-])n1 | < 104 nM
Cc1ccc(Nc2nc(N)nc(CCl)n2)c(C)c1 | 388 nM
Cc1c(C(=O)OCC(=O)N2CC(=O)Nc3ccccc32)oc2ccc(Br)cc12 | > 13300 nM (inactive)
N=c1c2c(-c3ccccc3)c(-c3ccccc3)n(Cc3ccco3)c2ncn1CCCn1ccnc1 | 1270 nM
COc1ccc(/C=N\NC(=O)c2cccc(F)c2)cc1COc1ccccc1 | < 104 nM
CC[C@@]1(O)C(=O)OCc2c1cc1n(c2=O)Cc2cc3c(N)cccc3nc2-1 | < 30.7 nM
COc1ccc(C(=O)c2cc([N+](=O)[O-])ccc2N2CCOCC2)cc1 | < 104 nM
CCCc1sc(N/N=C/c2ccccn2)nc1-c1ccc(F)cc1 | 1360 nM
CCN1CCc2c(sc(NC(=O)c3cc4ccccc4cc3OC)c2C(N)=O)C1 | 588 nM
CCc1ccc(NC(=O)[C@H](Cc2c[nH]c3ccccc23)NC(=O)[C@@H]2Cc3ccccc3CN2)cc1 | > 13300 nM (inactive)
CCOC(=O)c1ccc(NC(=O)Nc2ccon2)cc1 | < 104 nM
COC(=O)C1CN(C#N)N(c2ccc(Cl)cc2)C12c1ccccc1-c1ccccc12 (stereo not given) | 567 nM
O=C1/C(=C/c2ccncc2)CCC/C1=C\c1ccncc1 | 539 nM
Cc1ccccc1Nc1nc(N)nc(CCl)n1 | 2290 nM
c1ccc2nc(-c3nc4ccccc4o3)ccc2c1 | > 13300 nM (inactive)
CCCCN=C[C@]12CCC(O)CC1(O)CCC1[C@@H]2CC[C@]2(C)[C@H](C3C=CC(=O)O3)CCC12O (stereo not given in full) | 315 nM
CCCCCN=Cc1c(C)[nH]n(-c2nc3ccccc3s2)c1=O | > 13300 nM (inactive)
COc1ccc(/C=C/c2cc(-c3ccc(C)cc3)o[n+]2C)cc1 | 654 nM
CC(C)(C)c1ccc(C(=O)Nc2ccc(C(=O)NCc3cccnc3)cc2)cc1 | < 118 nM
O=[N+]([O-])c1c(Nc2ccccn2)cc(Cl)c2nonc12 | 2110 nM
COc1cccc(N(C(=O)CCl)C(C(=O)NCCc2ccccc2)c2cccs2)c1 (stereo not given) | 212 nM
CCOC(=O)C1CCN(S(=O)(=O)c2c(Cl)ccc3nonc23)CC1 | 407 nM
CCN(CC)c1ccc(/C=N/NC(=O)c2ccco2)c(O)c1 | 804 nM
CNC1=C(N(C(C)=O)c2ccc(Br)cc2)C(=O)c2ccccc2C1=O | 1350 nM
COc1cccc(C(=O)Nc2ccc(N3CCCC3)cc2)c1 | 1970 nM
O=C(c1ccc2c3n(nc2c1)-c1ccccc1CO3)N1CCCCC1 | > 13300 nM (inactive)
COc1ccc(C[C@H]2NC[C@H](O)[C@H]2OC(C)=O)cc1 | < 64.7 nM

Compound | EC50
COc1ccc(C)cc1Nc1c2c(nc3ccccc13)CCC2 | 292 nM
COc1ccccc1C1C2=C(COC2=O)Nc2cc3c(cc21)OCO3 (stereo not given) | < 104 nM
COc1ccc(/C=N/NC(=O)c2[nH]c3ccc(Br)cc3c2-c2ccccc2)cc1 | < 70.3 nM
COc1ccc(C)cc1NS(=O)(=O)c1ccc(-c2cnc(C3CC3)o2)cc1 | < 104 nM
COc1cccc(N2CCN(C(=O)c3ccc(CS(=O)c4ccc(C)cc4)o3)CC2)c1 (stereo not given) | 165 nM
O=C1SC(Cc2ccccc2)C(=O)N1c1ccccc1 (stereo not given) | 2350 nM
Cc1sc2ncnc(N/N=C/c3ccccc3O)c2c1C | 3700 nM
Nc1ccc2c(c1)C(=O)C(=O)c1ccccc1-2 | 1720 nM
CCc1ccc(CCC(=O)Nc2ncc(Cc3ccccc3Cl)s2)o1 | 1060 nM
CCN1C/C(=C/c2ccc(OC)c(O)c2)C(=O)/C(=C/c2ccc(OC)c(O)c2)C1 | 472 nM
CCN(CC)CCCNC(=O)c1cc(-c2ccccc2)c(N2CCCCC2)s1 | > 13300 nM (inactive)
CCc1ccc(/C=C2/SC(=S)N(CCC(=O)Nc3cccnc3)C2=O)cc1 | 2750 nM
CCCCc1c(C)c(C#N)c2nc3ccccc3n2c1Cl | 587 nM
CCOc1ccc2nc(NC(=O)c3ccoc3C)sc2c1 | > 13300 nM (inactive)
C[C@H]1O[C@@H](O[C@H]2[C@@H](O)C[C@H](O[C@H]3[C@@H](O)C[C@H](O[C@H]4CC[C@@]5(C)[C@H](CC[C@@H]6[C@@H]5C[C@@H](O)[C@]5(C)[C@@H](C7=CC(=O)OC7)CC[C@]65O)C4)O[C@@H]3C)O[C@@H]2C)C[C@H](O)[C@@H]1O | < 104 nM
O=C(/C=C/c1ccc(F)cc1)NNC(=O)CCN1CCN(Cc2ccccc2)CC1 | > 13300 nM (inactive)
COc1ccccc1-n1cnc2cc(NCc3cccs3)ccc21 | < 104 nM
CCOc1ccc(C2=Nn3c(nnc3-c3ccccc3OC)SC2)cc1 | < 104 nM
CN(Cc1cnc2nc(N)nc(N)c2n1)c1ccc(C(=O)N[C@@H](CCC(=O)O)C(=O)O)cc1 | > 13300 nM (inactive)
COc1cc(OC)cc(C(=O)N[C@H](C(=O)Nc2nc3ccccc3[nH]2)C(C)C)c1 | 324 nM
Cc1ccc(C(=O)c2cc([N+](=O)[O-])ccc2N2CCCCC2)c(C)c1 | < 104 nM
COCCCNC(=O)c1ccc2c3c(onc13)-c1ccccc1C2=O | 3150 nM
COc1ccc(-c2cc3nc(C)n(N)c(=O)c3s2)cc1 | > 13300 nM (inactive)
Cc1ccc(C2=NN(C(=O)CCl)C(c3ccco3)C2)o1 (stereo not given) | 1600 nM

— PubChem BioAssay AID2610 (Broad Institute, 2010)
